Measured values taken from patent US4942155A, “Biosynthetic anthracyclines related to daunorubicin” (Farmitalia Carlo Erba S.p.A., priority 1986, dated 1990).
≈ marks a conversion by molar mass, not a printed value.

Experiments:
P388 ascitic leukemia = assay: In vivo activity against P388 ascitic leukemia in mice; conditions: for Toxic deaths: macroscopic autopic findings; for MST (T/C %): median survival time, % of untreated controls; for in vivo activity compared with daunorubicin: P388 ascitic leukemia in mice, at dosage levels several times lower
Experimental: ^(a) Mice were treated i.p. on day 1 after tumor cell inoculation.
^(b) Injected as 1:9 Tween 80:water suspension.
(§1) ^(c) Median survival time expressed as percentage of untreated
^(d) Evaluated on the basis of macroscopic autopic findings.

P388/S leukemia cells = assay: In vitro cytotoxicity on P388 leukemia cells sensitive to doxorubicin; format: cell-based; conditions: for IC50: Mus musculus, exposed for 48 hr then plated, read-out: ID50 (the source's name)
From the text: (§2) The cytotoxic activity of the new anthracyclines, FCE 24366 and FCE 24367 have been tested in vitro on cultured HeLa cells, and P388 leukemia cells sensitive (P 388/S) or resistant (P 388/R) to doxorubicin.
(§3) ^(b) Cells are exposed to the drugs for 48 hr then plated

P388/R leukemia cells = assay: In vitro cytotoxicity on P388 leukemia cells resistant to doxorubicin; format: cell-based; conditions: for IC50: Mus musculus, exposed for 48 hr then plated, read-out: ID50 (the source's name); for activity on P 388/R cell line: cross-resistant to most anthracyclines
From the text: as §2, §3

HeLa cells = assay: In vitro cytotoxicity on cultured HeLa cells; format: cell-based; conditions: for IC50: Homo sapiens, exposed for 24 hr then plated, read-out: ID50 (the source's name)
From the text: as §2
^(a) Cells are exposed to the drugs for 24 hr then plated

Gross leukemia = assay: In vivo activity against Gross leukemia in mice; conditions: for Toxic deaths: macroscopic autoptic findings; for MST (T/C %): median survival time, % of untreated controls
Experimental: ^(a) Mice were treated i.v. on day 1 after tumor cell i.v.
^(b) Injected as 1:9 Tween 80:water suspension
as §1
^(d) Evaluated on the basis of macroscopic autoptic findings.

Escherichia coli 026B6 = assay: In vitro MIC, standard tube dilution; format: cell-based
From the text: (§4) The in vitro minimum inhibitory concentration (MIC) of FCE 24366, FCE 24367 and daunorubicin, determined for some microorganism using the standard tube dilution procedure, are reported in Table 4.

[1] = system: Streptococcus pyogenes ATCC 12384; assay: In vitro MIC, standard tube dilution; format: cell-based; conditions: ATCC12384
From the text: as §4

[2] = system: Escherichia coli ATCC 11303; assay: In vitro MIC, standard tube dilution; format: cell-based; conditions: ATCC11303
From the text: as §4

[3] = system: Staphylococcus aureus 209P; assay: In vitro MIC, standard tube dilution; format: cell-based
From the text: as §4

[4] = system: Streptococcus faecalis ATCC 8043; assay: In vitro MIC, standard tube dilution; format: cell-based; conditions: Enterococcus faecalis, ATCC8043
From the text: as §4

[5] = system: Staphylococcus aureus 153; assay: In vitro MIC, standard tube dilution; format: cell-based
From the text: as §4

Sarcina lutea ATCC 9341 = assay: In vitro MIC, standard tube dilution; format: cell-based; conditions: Micrococcus luteus, ATCC9341
From the text: as §4

[6] = system: Proteus morganii ATCC 25830; assay: In vitro MIC, standard tube dilution; format: cell-based; conditions: Morganella morganii, ATCC25830
From the text: as §4

[7] = system: Klebeiella pneumoniae ATCC 10031; assay: In vitro MIC, standard tube dilution; format: cell-based
From the text: as §4

Solubility = format: physicochemical
[8] = Stability in acidic media; format: physicochemical
[9] = acetone, dioxane, N,N-dimethylformamide, N,N-dimethylsulfoxide
[10] = chloroform, dichloromethane, ethyl acetate, lower alcohols
[11] = ethyl ether, n-hexane, petroleum ether and water

Row | SMILES | IC50 (P388/S leukemia cells) | IC50 (P388/R leukemia cells) | IC50 (HeLa cells) | MIC (Escherichia coli 026B6) | MIC [1] | MIC [2] | MIC [3] | MIC [4] | MIC [5] | MIC (Sarcina lutea ATCC 9341) | MIC [6] | MIC [7] | in vivo activity compared with daunorubicin (P388 ascitic leukemia) | cytotoxic dosage level compared with daunorubicin (P388/S leukemia cells) | solubility (Solubility; [9]) | solubility (Solubility; [10]) | solubility (Solubility; [11]) | activity on P 388/R cell line (P388/R leukemia cells) | stability [8] | cytotoxic dosage level compared with daunorubicin (HeLa cells) | other results
1 | COc1cccc2c1C(=O)c1c(O)c3c(c(O)c1C2=O)C[C@@](O)(C(C)=O)C[C@@H]3O[C@H]1C[C@H](N)[C@H](O)[C@H](C)O1 [Daunorubicin, daunorubicin] | 9.5 ng/mL (≈ 0.018 µM) | 0.75 µg/mL (≈ 1.42 µM) | 19 ng/mL (≈ 0.036 µM) | 6.25 µg/mL (≈ 11.8 µM) | 3.12 µg/mL (≈ 5.91 µM) | 3.12 µg/mL (≈ 5.91 µM) | 6.25 µg/mL (≈ 11.8 µM) | > 100 µg/mL | 25 µg/mL (≈ 47.4 µM) | 1.56 µg/mL (≈ 2.96 µM) | > 100 µg/mL | > 100 µg/mL | – | – | – | – | – | – | – | – | Toxic deaths (P388 ascitic leukemia; 2.9 mg/Kg i.p. on day 1): 0/10; MST (T/C %) (P388 ascitic leukemia; 2.9 mg/Kg i.p. on day 1): 160%; Toxic deaths (P388 ascitic leukemia; 4.4 mg/Kg i.p. on day 1): 7/10; MST (T/C %) (P388 ascitic leukemia; 4.4 mg/Kg i.p. on day 1): 150%; Toxic deaths (Gross leukemia; 10 mg/Kg i.v. on day 1): 0/9; MST (T/C %) (Gross leukemia; 10 mg/Kg i.v. on day 1): 183%; Toxic deaths (Gross leukemia; 15 mg/Kg i.v. on day 1): 0/9; MST (T/C %) (Gross leukemia; 15 mg/Kg i.v. on day 1): 217%; Toxic deaths (Gross leukemia; 22.5 mg/Kg i.v. on day 1): 9/9; MST (T/C %) (Gross leukemia; 22.5 mg/Kg i.v. on day 1): 83%
2 | COc1cccc2c1C(=O)c1c(O)c3c(c(O)c1C2=O)C[C@@](O)(C(C)=O)C[C@@H]3O[C@H]1C[C@@H]2NC(C3C(=O)NC(=S)NC3=O)C(C)OC(CC(C)O)O[C@@H]2[C@H](C)O1 (some centres unmarked) [FCE 24367] | 0.003 ng/mL (≈ 3.76e-06 µM) | 0.0038 µg/mL (≈ 0.00476 µM) | 0.7 ng/mL (≈ 0.000877 µM) | 12.5 µg/mL (≈ 15.7 µM) | 6.25 µg/mL (≈ 7.83 µM) | 3.12 µg/mL (≈ 3.91 µM) | 6.25 µg/mL (≈ 7.83 µM) | 100 µg/mL (≈ 125 µM) | 6.25 µg/mL (≈ 7.83 µM) | 0.78 µg/mL (≈ 0.978 µM) | 100 µg/mL (≈ 125 µM) | 25 µg/mL (≈ 31.3 µM) | as active as daunorubicin | several times lower than those of daunorubicin | soluble | slightly soluble | barely soluble or insoluble | high activity | unstable | several times lower than those of daunorubicin | Toxic deaths (P388 ascitic leukemia; 0.3 mg/Kg i.p. on day 1): 0/10; MST (T/C %) (P388 ascitic leukemia; 0.3 mg/Kg i.p. on day 1): 145%; Toxic deaths (P388 ascitic leukemia; 0.45 mg/Kg i.p. on day 1): 1/10; MST (T/C %) (P388 ascitic leukemia; 0.45 mg/Kg i.p. on day 1): 150%; Toxic deaths (P388 ascitic leukemia; 0.68 mg/Kg i.p. on day 1): 1/10; MST (T/C %) (P388 ascitic leukemia; 0.68 mg/Kg i.p. on day 1): 155%
3 | COc1cccc2c1C(=O)c1c(O)c3c(c(O)c1C2=O)C[C@@](O)(C(C)=O)C[C@@H]3O[C@H]1C[C@@H]2NC(C3C(=O)N(C)C(=O)N(C)C3=O)C(C)OC(CC(C)O)O[C@@H]2[C@H](C)O1 (some centres unmarked) [FCE 24366] | 0.036 ng/mL (≈ 4.45e-05 µM) | 0.0012 µg/mL (≈ 0.00148 µM) | 0.09 ng/mL (≈ 0.000111 µM) | 1.56 µg/mL (≈ 1.93 µM) | 3.12 µg/mL (≈ 3.85 µM) | 0.39 µg/mL (≈ 0.482 µM) | 0.78 µg/mL (≈ 0.963 µM) | 12.5 µg/mL (≈ 15.4 µM) | 0.78 µg/mL (≈ 0.963 µM) | 0.19 µg/mL (≈ 0.235 µM) | 12.5 µg/mL (≈ 15.4 µM) | 0.78 µg/mL (≈ 0.963 µM) | as active as daunorubicin | several times lower than those of daunorubicin | soluble | slightly soluble | barely soluble or insoluble | high activity | unstable | several times lower than those of daunorubicin | Toxic deaths (P388 ascitic leukemia; 0.012 mg/Kg i.p. on day 1): 0/10; MST (T/C %) (P388 ascitic leukemia; 0.012 mg/Kg i.p. on day 1): 130%; Toxic deaths (P388 ascitic leukemia; 0.025 mg/Kg i.p. on day 1): 0/10; MST (T/C %) (P388 ascitic leukemia; 0.025 mg/Kg i.p. on day 1): 135%; Toxic deaths (P388 ascitic leukemia; 0.05 mg/Kg i.p. on day 1): 0/10; MST (T/C %) (P388 ascitic leukemia; 0.05 mg/Kg i.p. on day 1): 150%; Toxic deaths (P388 ascitic leukemia; 0.1 mg/Kg i.p. on day 1): 1/10; MST (T/C %) (P388 ascitic leukemia; 0.1 mg/Kg i.p. on day 1): 165%; Toxic deaths (Gross leukemia; 0.13 mg/Kg i.v. on day 1): 0/9; MST (T/C %) (Gross leukemia; 0.13 mg/Kg i.v. on day 1): 117%; Toxic deaths (Gross leukemia; 0.20 mg/Kg i.v. on day 1): 0/8; MST (T/C %) (Gross leukemia; 0.20 mg/Kg i.v. on day 1): 192%; Toxic deaths (Gross leukemia; 0.30 mg/Kg i.v. on day 1): 2/9; MST (T/C %) (Gross leukemia; 0.30 mg/Kg i.v. on day 1): 150%; activity against Gross leukemia compared with daunorubicin (Gross leukemia; Gross leukemia in mice): activity comparable with that of daunorubicin at remarkably lower dosages
